# Experimental data: PubChem BioAssay (NCI)
#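 The compound was tested at five concentrations on cells cultured in 96-well plates, with a 48-hour exposure period. TGI marks complete inhibition of growth.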
# Test system: SN12C renal
# Assay: NCI tumour cell line growth inhibition, 48 h
row,Compound,TGI
1,COc1cccc(C2CC23C(=O)NC(=O)NC3=O)c1 (stereo unspecified),> 100 µM
2,O=C(CSc1c2ccccc2nc2ccccc12)Nc1ccccc1-c1ccccc1NC(=O)CSc1c2ccccc2nc2ccccc12,> 83.5 µM
3,CC1(C)OC[C@@H]([C@H](O)C2C=CC(=O)S2)O1 (stereo partly specified),> 100 µM
4,O=C1c2ccccc2C(=O)c2c1nc1ccccc1c2-c1cncc(-c2c3c(nc4ccccc24)C(=O)c2ccccc2C3=O)c1,27.9 µM
5,O=S(=O)(c1ccccc1)N1N=C2c3ccccc3CCC[C@H]2C1c1ccccc1 (stereo partly specified),> 100 µM
6,CCOC(=O)/C(=C/c1ccc(N(C)C)cc1)N(CC)CC,> 100 µM

# Test system: SNB-75 CNS
# Assay: NCI tumour cell line growth inhibition, 48 h
row,Compound,TGI
1,COC(=O)[C@@]1(C)/C(=N/NS(=O)(=O)c2ccc(C)cc2)CCC[C@@H]1C,> 100 µM
2,C=C(Nc1nc2ccc(C)cc2s1)C(=O)C(CC)C(=O)C(CC)CC1C(=O)NC(=O)NC1=O (stereo unspecified),> 100 µM
3,COc1ccc(OC)c(/C=C(/C#N)c2ccccc2)c1,32.8 µM
4,COC(=O)C(C(=O)Cc1ccccc1[N+](=O)[O-])C(=O)OC,> 100 µM
5,COCOC1C=CCCCC2=CC(C)=C(CC1)O2 (stereo unspecified),> 100 µM
6,CCCCC/C=C1\CCC(CN(C)C)C1=O (stereo unspecified),32.3 µM
7,C=CCN1CCC(O)(c2cc(C(=O)OCC)[nH]c2-c2cc(C)no2)C1 (stereo unspecified),> 100 µM
8,CN(C)/N=C1/CCC(C(F)(F)F)(C(F)(F)F)O1,97.5 µM
9,N#Cc1c(-c2ccc(Cl)cc2)c(C#N)c(=O)n(NS(=O)(=O)c2ccccc2)c1O,> 100 µM
10,COC(=O)c1nsc(OC)c1Cl,> 100 µM
11,CNCCCn1c2ccccc2c2c3c(c(-c4ccsc4)cc21)C(=O)NC3=O,3.43 µM
12,CN(CCN(C)C(=O)CCn1cc(F)c(=O)[nH]c1=O)C(=O)CCn1cc(F)c(=O)[nH]c1=O,> 100 µM
13,CCOC1c2cc(C(C)C)c(O)c(O)c2[C@@]23CCCC(C)(C)C2C1OC3=O (stereo partly specified),> 100 µM
14,C=CN1C(=O)[C@H](Oc2ccccc2)[C@@H]1c1ccccc1,61.8 µM
15,C=CCN(C(=O)CNC(=O)C(F)(F)F)c1cc(OCc2ccccc2)c2c(c1)c(C)cn2S(=O)(=O)c1ccccc1,> 76.2 µM
16,COC1(OC)CCCc2c1no[n+]2[O-],> 100 µM
17,COc1ccc(C(C#N)NNC(=O)Cc2ccccc2)cc1OC (stereo unspecified),> 100 µM
18,CC(C)=CC1CC(=[N+]=[N-])C(=O)C1(C)C (stereo unspecified),> 86.5 µM
19,O=C(CSc1c2ccccc2nc2ccccc12)Nc1ccccc1-c1ccccc1NC(=O)CSc1c2ccccc2nc2ccccc12,> 100 µM
20,CC1(C)OC[C@@H]([C@H](O)C2C=CC(=O)S2)O1 (stereo partly specified),> 100 µM
21,O=C1c2ccccc2C(=O)c2c1nc1ccccc1c2-c1cncc(-c2c3c(nc4ccccc24)C(=O)c2ccccc2C3=O)c1,21.1 µM
22,O=S(=O)(c1ccccc1)N1N=C2c3ccccc3CCC[C@H]2C1c1ccccc1 (stereo partly specified),> 100 µM
23,CC(C)[Si]1(C(C)C)OCC2OC3(CO)C(Oc4nc(=O)ccn43)C2O[Si](C(C)C)(C(C)C)O1 (stereo unspecified),30.7 µM

# Test system: T-47D breast
# Assay: NCI tumour cell line growth inhibition, 48 h
row,Compound,TGI
1,C=CCN1CCC(O)(c2cc(C(=O)OCC)[nH]c2-c2cc(C)no2)C1 (stereo unspecified),> 100 µM
2,CN(C)/N=C1/CCC(C(F)(F)F)(C(F)(F)F)O1,> 100 µM
3,C=CCN(C(=O)CNC(=O)C(F)(F)F)c1cc(OCc2ccccc2)c2c(c1)c(C)cn2S(=O)(=O)c1ccccc1,> 100 µM
4,CSc1ccsc1-c1sc(-c2cc(SC)c(-c3sc(-c4cc(SC)c(-c5sccc5SC)s4)cc3SC)s2)cc1SC,82.8 µM
5,O=C1c2ccccc2C(=O)c2c1nc1ccccc1c2-c1cncc(-c2c3c(nc4ccccc24)C(=O)c2ccccc2C3=O)c1,57.6 µM
6,CC(C)[Si]1(C(C)C)OCC2OC3(CO)C(Oc4nc(=O)ccn43)C2O[Si](C(C)C)(C(C)C)O1 (stereo unspecified),24 µM

# Test system: TK-10 renal
# Assay: NCI tumour cell line growth inhibition, 48 h
row,Compound,TGI
1,COC(=O)[C@@]1(C)/C(=N/NS(=O)(=O)c2ccc(C)cc2)CCC[C@@H]1C,> 100 µM
2,C=C(Nc1nc2ccc(C)cc2s1)C(=O)C(CC)C(=O)C(CC)CC1C(=O)NC(=O)NC1=O (stereo unspecified),> 100 µM
3,COc1ccc(OC)c(/C=C(/C#N)c2ccccc2)c1,> 100 µM
4,COC(=O)C(C(=O)Cc1ccccc1[N+](=O)[O-])C(=O)OC,> 100 µM
5,COCOC1C=CCCCC2=CC(C)=C(CC1)O2 (stereo unspecified),> 100 µM
6,CCCCC/C=C1\CCC(CN(C)C)C1=O (stereo unspecified),> 40.1 µM
7,C=CCN1CCC(O)(c2cc(C(=O)OCC)[nH]c2-c2cc(C)no2)C1 (stereo unspecified),> 100 µM
8,CN(C)/N=C1/CCC(C(F)(F)F)(C(F)(F)F)O1,> 100 µM
9,N#Cc1c(-c2ccc(Cl)cc2)c(C#N)c(=O)n(NS(=O)(=O)c2ccccc2)c1O,> 100 µM
10,COC(=O)c1nsc(OC)c1Cl,> 100 µM
11,CNCCCn1c2ccccc2c2c3c(c(-c4ccsc4)cc21)C(=O)NC3=O,3.23 µM
12,CN(CCN(C)C(=O)CCn1cc(F)c(=O)[nH]c1=O)C(=O)CCn1cc(F)c(=O)[nH]c1=O,> 100 µM
13,CCOC1c2cc(C(C)C)c(O)c(O)c2[C@@]23CCCC(C)(C)C2C1OC3=O (stereo partly specified),> 100 µM
14,C=CN1C(=O)[C@H](Oc2ccccc2)[C@@H]1c1ccccc1,> 100 µM
15,C=CCN(C(=O)CNC(=O)C(F)(F)F)c1cc(OCc2ccccc2)c2c(c1)c(C)cn2S(=O)(=O)c1ccccc1,> 100 µM
16,CSc1ccsc1-c1sc(-c2cc(SC)c(-c3sc(-c4cc(SC)c(-c5sccc5SC)s4)cc3SC)s2)cc1SC,> 100 µM
17,CS(=O)(=O)c1ccc(-c2cc(-c3ccc(S(C)(=O)=O)cc3)[n+](-c3cc(-c4ccccc4)c([O-])c(-c4ccccc4)c3)c(-c3ccc(S(C)(=O)=O)cc3)c2)cc1,> 100 µM
18,COC1(OC)CCCc2c1no[n+]2[O-],> 100 µM
19,COc1ccc(C(C#N)NNC(=O)Cc2ccccc2)cc1OC (stereo unspecified),> 100 µM
20,CC(C)=CC1CC(=[N+]=[N-])C(=O)C1(C)C (stereo unspecified),> 100 µM
21,COc1cccc(C2CC23C(=O)NC(=O)NC3=O)c1 (stereo unspecified),> 100 µM
